From patent publication US12122761B2, “2-azaspiro[3.4]octane derivatives as M4 agonists” (NOVARTIS AG, priority 2019, dated 2024)

Assays:
[1] = molecular target: T1, human cloned CHRM2 receptor (M2_CHO cells) (Homo sapiens, UniProt P08172); test: CHRM2 Ca++ Flux Assay (agonist mode, FDSS 7000EX); type: cell-based; settings: for Emax: Percent Activity measured to EC100 of Carbachol, read-out: M2 FDSS PA; for EC50: agonist mode, geometric mean if tested more than once, read-out: M2 FDSS EC50
T1 construct: expressed in transfected cells; host or cells: CHO-K1
T1 sequence (P08172 1-466): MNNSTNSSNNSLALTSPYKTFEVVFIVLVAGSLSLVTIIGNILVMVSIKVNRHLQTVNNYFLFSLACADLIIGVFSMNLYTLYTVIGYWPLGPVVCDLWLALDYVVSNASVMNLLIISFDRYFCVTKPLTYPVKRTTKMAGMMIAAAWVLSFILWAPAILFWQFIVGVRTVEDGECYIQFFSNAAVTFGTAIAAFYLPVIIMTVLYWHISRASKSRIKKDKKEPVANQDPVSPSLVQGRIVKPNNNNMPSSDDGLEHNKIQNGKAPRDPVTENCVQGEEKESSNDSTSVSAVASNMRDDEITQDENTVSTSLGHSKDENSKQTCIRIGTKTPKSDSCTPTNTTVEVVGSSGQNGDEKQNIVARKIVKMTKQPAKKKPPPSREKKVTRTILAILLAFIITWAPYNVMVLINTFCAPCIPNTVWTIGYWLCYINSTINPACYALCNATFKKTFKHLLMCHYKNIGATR
In short: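 Agonist-mode Ca++ flux in CHO-K1 cells stably expressing human CHRM2, dye-loaded, then held 60 min at room temperature in buffer with 20 μM ATP before compound addition; traces read over 3 minutes. Four-parameter fit of triplicate wells; percent activity relative to Carbachol EC100.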

[2] = molecular target: T2, human cloned CHRM3 receptor (M3_CHO cells) (Homo sapiens, UniProt P20309); test: CHRM3 Ca++ Flux Assay (agonist mode, FDSS 7000EX); type: cell-based; settings: for Emax: Percent Activity measured to EC100 of Carbachol, read-out: M3 FDSS PA; for EC50: agonist mode, geometric mean if tested more than once, read-out: M3 FDSS EC50
T2 construct: expressed in transfected cells; host or cells: CHO-K1
In short: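 Agonist responses are measured as calcium mobilization in CHO-K1 cells expressing human M3 or M5, tested over an 11-point dose range in triplicate. Percent activity is normalised to carbachol at EC100.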

T2 sequence (P20309 whole entry): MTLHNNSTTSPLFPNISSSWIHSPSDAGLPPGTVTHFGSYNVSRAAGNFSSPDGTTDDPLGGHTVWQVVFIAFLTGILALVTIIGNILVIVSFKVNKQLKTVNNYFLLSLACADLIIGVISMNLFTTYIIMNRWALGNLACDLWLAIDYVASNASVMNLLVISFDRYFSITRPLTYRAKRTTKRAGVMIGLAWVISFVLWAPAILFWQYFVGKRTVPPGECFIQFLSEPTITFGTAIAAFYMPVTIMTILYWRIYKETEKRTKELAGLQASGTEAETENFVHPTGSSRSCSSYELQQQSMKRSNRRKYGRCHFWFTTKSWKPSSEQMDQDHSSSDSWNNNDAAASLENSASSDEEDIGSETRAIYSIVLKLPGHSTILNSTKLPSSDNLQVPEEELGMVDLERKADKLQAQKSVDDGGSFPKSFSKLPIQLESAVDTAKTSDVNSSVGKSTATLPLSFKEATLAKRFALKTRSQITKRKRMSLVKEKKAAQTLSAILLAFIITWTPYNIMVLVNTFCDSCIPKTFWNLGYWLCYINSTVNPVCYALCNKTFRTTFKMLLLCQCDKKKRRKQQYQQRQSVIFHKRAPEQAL

Row | Compound | Emax [1] [%] | Emax [2] [%] | EC50 [2] [µM] | EC50 [1] [µM]
1 | c1ccc(C2CCN([C@@H]3CCC4(C3)CN(c3nnco3)C4)CC2)c(OC2CC3(COC3)C2)c1 [Example 1A, (R)-2-(6-(4-(2-((2-oxaspiro[3.3]heptan-6-yl)oxy)phenyl)piperidin-1-yl)-2-azaspiro[3.4]octan-2-yl)-1,3,4-oxadiazole] | 0 | 0 | > 25 | 
2 | c1ccc(C2CCN([C@@H]3CCC4(C3)CN(c3nnco3)C4)CC2)c(OC[C@@H]2COCCO2)c1 [Example 1E, 2-((R)-6-(4-(2-(((S)-1,4-dioxan-2-yl)methoxy)phenyl)piperidin-1-yl)-2-azaspiro[3.4]octan-2-yl)-1,3,4-oxadiazole] | 14 | 0 | > 25 | 0.021
3 | Fc1ccc(C2CCOC2)c(C2CCN([C@@H]3CCC4(C3)CN(c3nnco3)C4)CC2)c1 (mixture of isomers) [Example 2J, 2-((6R)-6-(4-(5-fluoro-2-(tetrahydrofuran-3-yl)phenyl)piperidin-1-yl)-2-azaspiro[3.4]octan-2-yl)-1,3,4-oxadiazole] | 37 | 0 | > 25 | 0.036
4 | O=C(C1COC1)N1CC2(CC[C@@H](N3CCC(c4ccccc4OC4CCC4)CC3)C2)C1 [Example 7H, (R)-(6-(4-(2-cyclobutoxyphenyl)piperidin-1-yl)-2-azaspiro[3.4]octan-2-yl)(oxetan-3-yl)methanone] | 0 | 0 | > 25 | 
5 | CC1(COc2ccccc2C2CCN([C@@H]3CCC4(C3)CN(c3nnco3)C4)CC2)CCOCC1 [Example 2E, (R)-2-(6-(4-(2-((4-methyltetrahydro-2H-pyran-4-yl)methoxy)phenyl)piperidin-1-yl)-2-azaspiro[3.4]octan-2-yl)-1,3,4-oxadiazole] | 10 | 0 | > 25 | 0.09
6 | FC1(COc2ccccc2C2CCN([C@@H]3CCC4(C3)CN(c3nncs3)C4)CC2)CCOCC1 [Example 1J, (R)-2-(6-(4-(2-((4-fluorotetrahydro-2H-pyran-4-yl)methoxy)phenyl)piperidin-1-yl)-2-azaspiro[3.4]octan-2-yl)-1,3,4-thiadiazole] | 72 | 0 | > 25 | 0.051
7 | FC1(COc2ccccc2C2CCN([C@@H]3CCC4(C3)CN(c3nncs3)C4)CC2)COC1 [Example 1H, (R)-2-(6-(4-(2-((3-fluorooxetan-3-yl)methoxy)phenyl)piperidin-1-yl)-2-azaspiro[3.4]octan-2-yl)-1,3,4-thiadiazole] | 41 | 0 | > 25 | 0.03

Next, values leading:

Row | Emax [1] [%] | Emax [2] [%] | EC50 [2] [µM] | EC50 [1] [µM] | Compound
8 | 0 | 0 | > 25 |  | O=C(N1CC2(CC[C@@H](N3CCC(c4ccccc4C4CCOCC4)CC3)C2)C1)C1(F)CC1 [Example 6E, (R)-(1-fluorocyclopropyl)(6-(4-(2-(tetrahydro-2H-pyran-4-yl)phenyl)piperidin-1-yl)-2-azaspiro[3.4]octan-2-yl)methanone]
9 | 0 | 0 | > 25 |  | Cc1nccnc1N1CC2(CC[C@@H](N3CCC(c4ccccc4OCC(C)(C)O)CC3)C2)C1 [Example 5T, (R)-2-methyl-1-(2-(1-(2-(3-methylpyrazin-2-yl)-2-azaspiro[3.4]octan-6-yl)piperidin-4-yl)phenoxy)propan-2-ol]
10 | 0 | 0 | > 25 |  | CC(C)(O)COc1ccccc1C1CCN([C@@H]2CCC3(C2)CN(c2ncns2)C3)CC1 [Example 3K, (R)-1-(2-(1-(2-(1,2,4-thiadiazol-5-yl)-2-azaspiro[3.4]octan-6-yl)piperidin-4-yl)phenoxy)-2-methylpropan-2-ol]
11 | 16 | 0 | > 25 | 0.154 | COC(C)(C)COc1ccccc1C1CCN([C@@H]2CCC3(C2)CN(C(=O)C2COC2)C3)CC1 [Example 7HH, (R)-(6-(4-(2-(2-methoxy-2-methylpropoxy)phenyl)piperidin-1-yl)-2-azaspiro[3.4]octan-2-yl)(oxetan-3-yl)methanone]
12 | 0 | 0 | > 25 |  | CC(C)(O)COc1ccccc1C1CCN([C@@H]2CCC3(C2)CN(C(=O)C2COC2)C3)CC1 [Example 7L, (R)-(6-(4-(2-(2-hydroxy-2-methylpropoxy)phenyl)piperidin-1-yl)-2-azaspiro[3.4]octan-2-yl)(oxetan-3-yl)methanone]
13 | 0 | 0 | > 25 |  | COCCOc1ccccc1C1CCN([C@@H]2CCC3(C2)CN(c2cccnn2)C3)CC1 [Example 5X, (R)-6-(4-(2-(2-methoxyethoxy)phenyl)piperidin-1-yl)-2-(pyridazin-3-yl)-2-azaspiro[3.4]octane]
14 | 16 | 0 | > 25 | 0.123 | O=C(C1COC1)N1CC2(CC[C@@H](N3CCC(c4ccccc4OCC4CC4)CC3)C2)C1 [Example 7I, (R)-(6-(4-(2-(cyclopropylmethoxy)phenyl)piperidin-1-yl)-2-azaspiro[3.4]octan-2-yl)(oxetan-3-yl)methanone]
15 | 31 | 0 | > 25 | 0.092 | N#CCCOc1ccccc1C1CCN([C@@H]2CCC3(C2)CN(C(=O)C2COC2)C3)CC1 [Example 7D, (R)-3-(2-(1-(2-(oxetane-3-carbonyl)-2-azaspiro[3.4]octan-6-yl)piperidin-4-yl)phenoxy)propanenitrile]
16 | 40 | 0 | > 25 |  | COc1ccccc1C1CCN([C@@H]2CCC3(C2)CN(c2ccns2)C3)CC1 [Example 3I, (R)-5-(6-(4-(2-methoxyphenyl)piperidin-1-yl)-2-azaspiro[3.4]octan-2-yl)isothiazole]
17 | 0 | 0 | > 25 | > 25 | COc1ccccc1C1CCN([C@@H]2CCC3(C2)CN(c2cnc(C)cn2)C3)CC1 [Example 5DD, (R)-6-(4-(2-methoxyphenyl)piperidin-1-yl)-2-(5-methylpyrazin-2-yl)-2-azaspiro[3.4]octane]
